Assay results published in patent US20250332112A1, “IONIZABLE CATIONIC LIPIDS FOR LIPID NANOPARTICLES” (GENEVANT SCIENCES GMBH, priority 2022, published 2025).

How the values were obtained:
[1] = tested on: EGFP expression in the liver; assay: Dose response of EGFP mRNA LNP, EGFP expression in liver; assay type: in vivo; conditions: 24 h, female BALB/c mice (n = 4)
Procedure: At 24 h post-dose, the novel lipid formulations reported dose-dependent increases in EGFP expression in the liver (Table 32).

[2] = tested on: EGFP expression in the liver; assay: EGFP expression in liver after intravenous EGFP mRNA LNP (ELISA); conditions: 0.5 mg/kg IV, 24 h post-IV administration, BALB/c mice (n = 4)
Procedure: LNP formulations encapsulating enhanced green fluorescent protein mRNA were injected intravenously at 0.5 mg/kg to female BALB/c mice (6-8 weeks old). On day of injection, the LNP stocks were filtered and diluted to the required dosing concentration with phosphate buffered saline. At 24 hours post-administration, animals were anaesthetized with a lethal dosage of ketamine/xylazine. Liver samples (left lateral lobe) were collected, weighed, and flash frozen in liquid nitrogen. Liver samples were stored in FastPrep® tubes at −80° C. until analyzed for EGFP expression.
Liver homogenates were prepared in cell extraction buffer, diluted, and analyzed for EGFP protein levels using ELISA, according to manufacturer's instructions (Abcam, GFP ELISA Kit).

[3] = Parent ionizable lipid remaining in liver at 24 h after EGFP mRNA LNP (LC-MS); assay type: in vivo; conditions: 24 h after IV 0.5 mg/kg EGFP mRNA LNP, female BALB/c mice (n = 4)
[4] = Lipid clearance from liver over time after EGFP mRNA LNP (LC-MS); assay type: in vivo; conditions: IV 0.5 mg/kg EGFP mRNA LNP, female BALB/c mice (n = 4)
Procedure: Liver tissues were treated with PBS and homogenized with a FastPrep machine, 3 cycles of 5 m/s×15 s. Homogenates from the PBS-treated control animals was pooled and used for standard curve preparation. Samples were extracted into a deep well plate with 250 μL of an internal suitability standard. Plates were centrifuged for 15 min at 4° C. and 2000 rpm. Analysis was performed using an Agilent 6520 QTOF coupled to an Agilent 1290 UHPLC, using reverse-phase LC separation. Quantitation of the ionizable lipid was by MS/MS against a calibration curve spiked into appropriately matched blank matrix. Calibration used a similar class of synthetic lipid as internal standard.
At various timepoints post-dose, lipid levels were assessed in the liver. Some novel ionizable lipids reported more rapid clearance rates compared to the benchmark (Table 33).

[5] = Particle characteristics of LNPs containing EGFP mRNA and novel ionizable lipids; assay type: physicochemical; conditions: EGFP mRNA LNP 1.6:54.6:32.8:10.9
Summary of the method: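 LNPs of PEG-lipid, ionizable lipid, cholesterol and phospholipid in ethanol were mixed 1:1 with mRNA in 100 mM acetate pH 5 via T-junction, diluted in PBS, dialysed, concentrated to ~0.6 mg/mL and exchanged into 5 mM Tris, 10% sucrose, pH 8. Size and polydispersity by Zetasizer; nucleic acid by RiboGreen.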

[6] = cited from earlier work

## CCCCCCCCCCN(C(=O)CCCN(C)C)C(CCCCCCCCC)CCCCC(F)(F)C(=O)OC(CCCCCCC)CCCCCCC (stereo not drawn) [Compound 101, Pentadecan-8-yl 7-(N-decyl-4-(dimethylamino)butanamido)-2,2-difluorohexadecanoate]
[1]; 0.3 mg/kg IV
  EGFP expression: 2.65e+07 pg EGFP/g liver
[1]; 1 mg/kg IV
  EGFP expression: 1.04e+08 pg EGFP/g liver
[1]; 3 mg/kg IV
  EGFP expression: 3.9e+08 pg EGFP/g liver
[2]; Table 25
  EGFP: 2.25E+05 pg/g liver
[3]; Table 29
  Parent ionizable lipid remaining in liver, Average: 16.30 nmol/g liver
[4]; 0.25 h post-dose
  Parent ionizable lipid remaining in liver, Average: 23.8 nmol/g liver
[4]; 1 h post-dose
  Parent ionizable lipid remaining in liver, Average: 42.4 nmol/g liver
[4]; 3 h post-dose
  Parent ionizable lipid remaining in liver, Average: 26.9 nmol/g liver
[4]; 6 h post-dose
  Parent ionizable lipid remaining in liver, Average: 30.6 nmol/g liver
[4]; 24 h post-dose
  Parent ionizable lipid remaining in liver, Average: 12.6 nmol/g liver
[4]; 168 h post-dose
  Parent ionizable lipid remaining in liver, Average: 0.6 nmol/g liver
[5]; Table 21
  Final Product % EE: 100%
  Final Product PDI: 0.10
  Final Product Z-avg: 70 nm

## CCCCCCCCC(CCCCCC)C(=O)OCCCCCCN(CCCCO)CCCCCCOC(=O)C(CCCCCC)CCCCCCCC (stereo not drawn) [ALC-0315]
[6]; ref: Comirnaty Assessment Report, European Medicines Agency
  Rate of metabolism (in words): metabolize at a similar rate to MC3

## CCCCCCCCCCN(C(=O)CCCN(C)C)C(CCCCCCCCC)CCCCCCC(F)C(=O)OC(CCCCCCCC)CCCCCCCC (stereo not drawn) [Compound 115, Heptadecan-9-yl 9-(N-decyl-4-(dimethylamino)butanamido)-2-fluorooctadecanoate]
[1]; 0.3 mg/kg IV
  EGFP expression: 2.98e+07 pg EGFP/g liver
[1]; 1 mg/kg IV
  EGFP expression: 1.31e+08 pg EGFP/g liver
[1]; 3 mg/kg IV
  EGFP expression: 3.41e+08 pg EGFP/g liver
[2]; Table 26
  EGFP: 6.06E+07 pg/g liver
[3]; Table 30
  Parent ionizable lipid remaining in liver, Average: 27.15 nmol/g liver
[4]; 0.25 h post-dose
  Parent ionizable lipid remaining in liver, Average: 36.7 nmol/g liver
[4]; 1 h post-dose
  Parent ionizable lipid remaining in liver, Average: 51.3 nmol/g liver
[4]; 3 h post-dose
  Parent ionizable lipid remaining in liver, Average: 44.8 nmol/g liver
[4]; 6 h post-dose
  Parent ionizable lipid remaining in liver, Average: 45.3 nmol/g liver
[4]; 24 h post-dose
  Parent ionizable lipid remaining in liver, Average: 0.0 nmol/g liver
[4]; 168 h post-dose
  Parent ionizable lipid remaining in liver, Average: 1.3 nmol/g liver
[5]; Table 22
  Final Product % EE: 98%
  Final Product PDI: 0.04
  Final Product Z-avg: 72 nm

## CCCCC/C=C\C/C=C\CCCCCCCCC(CCCCCCCC/C=C\C/C=C\CCCCC)OC(=O)CCCN(C)C [MC3]
[6]; in vivo
  Clearance from target tissues (in words): take several weeks to clear from target tissues
